Each compound was assayed against T1, Estrogen Receptor Alpha Ligand binding domain (ER alpha-LBD (GST)) (Homo sapiens, UniProt P03372) (assay: ERα Binding Assay (LanthaScreen TR-FRET competition)). Settings: competitive displacement of Fluormone ES2 tracer from recombinant human ER alpha-LBD (residues 307-554), 4 hours at room temperature.
T1 construct: made in house
T1 sequence (P03372 307-554): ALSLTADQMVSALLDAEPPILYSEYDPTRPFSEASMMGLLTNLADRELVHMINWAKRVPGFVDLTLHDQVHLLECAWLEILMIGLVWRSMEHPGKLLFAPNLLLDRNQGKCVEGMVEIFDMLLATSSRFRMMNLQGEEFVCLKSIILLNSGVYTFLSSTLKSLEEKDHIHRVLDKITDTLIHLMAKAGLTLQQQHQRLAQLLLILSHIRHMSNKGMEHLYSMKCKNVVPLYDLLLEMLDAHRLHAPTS
Method: The ability of compounds to bind to isolated Estrogen Receptor Alpha Ligand binding domain (ER alpha-LBD (GST)) was assessed in competition assays using a LanthaScreen™ Time-Resolved Fluorescence Resonance Energy Transfer (TR-FRET) detection end-point. For the LanthaScreen TR-FRET endpoint, a suitable fluorophore (Fluormone ES2, ThermoFisher, Product code P2645) and recombinant human Estrogen Receptor alpha ligand binding domain, residues 307-554 (expressed and purified in-house) were used to measure compound binding. The assay principle is that ER alpha-LBD (GST) is added to a fluorescent ligand to form a receptor/fluorophore complex. A terbium-labelled anti-GST antibody (Product code PV3551) is used to indirectly label the receptor by binding to its GST tag, and competitive binding is detected by a test compound's ability to displace the fluorescent ligand, resulting in a loss of TR-FRET signal between the Th-anti-GST antibody and the tracer. The assay was performed as follows with all reagent additions carried out using the Beckman Coulter BioRAPTR FRD microfluidic workstation: • 1. Acoustic dispense 120 nL of the test compound into a black low volume 384 well assay plates. • 2. Prepare 1×ER alpha-LBD/Tb-anti-GST Ab in ES2 screening buffer and incubate for 15 minutes. • 3. Dispense 6 μL of the 1×[…]/Th-anti-GST Ab reagent into each well of the assay plate followed by 6 μL of Fluorophore reagent into each well of the assay plate • 4. Cover the assay plate to protect the reagents from light and evaporation, and incubate at room temperature for 4 hours. • 5. Excite at 337 nm and measure the fluorescent emission signal of each well at 490 nm and 520 nm using the BMG PheraSTAR.
Compounds were dosed directly from a compound source microplate containing serially diluted compound (4 wells containing 10 mM, […] and 10 nM final compound respectively) to an assay microplate using the Labcyte Echo 550. The Echo 550 is a liquid handler that uses acoustic technology to perform direct microplate-to-microplate transfers of DMSO compound solutions and the system can be programmed to transfer multiple small nL volumes of compound from the different source plate wells to give the desired serial dilution of compound in the assay which is then back-filled to normalise the DMSO concentration across the dilution range.
In total 120 nL of compound plus DMSO were added to each well and compounds were tested in a 12-point concentration response format over a final compound concentration range of 10, 2.917, 1.042, 0.2083, 0.1, 0.0292, 0.0104, 0.002083, 0.001, 0.0002917, 0.0001042, and 0.00001 μM respectively. TR-FRET dose response data obtained with each compound was exported into a suitable software package (such as Origin or Genedata) to perform curve fitting analysis. Competitive ER alpha binding was expressed as an IC50 value. This was determined by calculation of the concentration of compound that was required to give a 50% reduction in tracer compound binding to ER alpha-LBD.

SMILES | IC50
C[C@@H]1Cc2c([nH]c3ccccc23)[C@@H](c2cnc(N3CCC(CCN4CCOC5(CC4)CCN(c4ccc6c(c4)CN(C4CCC(=O)NC4=O)C6=O)CC5)CC3)nc2)N1CC(C)(C)F (stereo partly drawn) [Example 20, 3-(5-{10-[2-(1-{5-[(1R,3R)-2-(2-fluoro-2-methylpropyl)-3-methyl-2,3,4,9-tetrahydro-1H-beta-carbolin-1-yl]pyrimidin-2-yl}piperidin-4-yl)ethyl]-7-oxa-3,10-diazaspiro[5.6]dodecan-3-yl}-1-oxo-1,3-dihydro-2H-isoindol-2-yl)piperidine-2,6-dione] | 2 nM
C[C@@H]1Cc2c([nH]c3ccccc23)[C@@H](c2cnc(N3CCC(CCN4CCN(c5ccc6c(c5)CN(C5CCC(=O)NC5=O)C6=O)CC4)CC3)nc2)N1CC(C)(C)F (stereo partly drawn) [Example 2, 3-[5-[4-[2-[1-[5-[(1R,3R)-2-(2-Fluoro-2-methyl-propyl)-3-methyl-1,3,4,9-tetrahydropyrido[3,4-b]indol-1-yl]pyrimidin-2-yl]-4-piperidyl]ethyl]piperazin-1-yl]-1-oxo-isoindolin-2-yl]piperidine-2,6-dione] | 3.3 nM
C[C@@H]1Cc2c([nH]c3ccccc23)[C@@H](c2cnc(N3CCC(CN4CCN(c5ccc6c(c5)CN(C5CCC(=O)NC5=O)C6=O)CC4)CC3)nc2)N1CC(C)(C)F (stereo partly drawn) [Example 1, 3-[5-[4-[[1-[5-[(1R,3R)-2-(2-Fluoro-2-methyl-propyl)-3-methyl-1,3,4,9-tetrahydropyrido[3,4-b]indol-1-yl]pyrimidin-2-yl]-4-piperidyl]methyl]piperazin-1-yl]-1-oxo-isoindolin-2-yl]piperidine-2,6-dione] | 3.1 nM
C[C@@H]1Cc2c([nH]c3ccccc23)[C@@H](c2cnc(N3CCC(CCCN4CCN(c5ccc6c(c5)CN(C5CCC(=O)NC5=O)C6=O)CC4)CC3)nc2)N1CC(F)(F)F (stereo partly drawn) [Example 34, 3-(5-{4-[3-(1-{5-[(1R,3R)-3-methyl-2-(2,2,2-trifluoroethyl)-2,3,4,9-tetrahydro-1H-beta-carbolin-1-yl]pyrimidin-2-yl}piperidin-4-yl)propyl]piperazin-1-yl}-1-oxo-1,3-dihydro-2H-isoindol-2-yl)piperidine-2,6-dione] | 7.3 nM
C[C@@H]1Cc2c([nH]c3ccccc23)[C@@H](c2cnc(OC3CCC4(CC3)CCN(CC3CCN(c5ccc6c(c5)CN(C5CCC(=O)NC5=O)C6=O)CC3)CC4)nc2)N1CC(C)(C)F (stereo partly drawn) [Example 41, 3-[5-(4-{[9-({5-[(1R,3R)-2-(2-fluoro-2-methylpropyl)-3-methyl-2,3,4,9-tetrahydro-1H-beta-carbolin-1-yl]pyrimidin-2-yl}oxy)-3-azaspiro[5.5]undecan-3-yl]methyl}piperidin-1-yl)-1-oxo-1,3-dihydro-2H-isoindol-2-yl]piperidine-2,6-dione] | 2.2 nM
C[C@@H]1Cc2c([nH]c3ccccc23)[C@@H](c2cnc(N3CCC(CN4CCC(CN5CCN(c6ccc7c(c6)CN(C6CCC(=O)NC6=O)C7=O)CC5)CC4)CC3)nc2)N1CC(C)(C)F (stereo partly drawn) [Example 14, 3-{5-[4-({1-[(1-{5-[(1R,3R)-2-(2-fluoro-2-methylpropyl)-3-methyl-2,3,4,9-tetrahydro-1H-beta-carbolin-1-yl]pyrimidin-2-yl}piperidin-4-yl)methyl]piperidin-4-yl}methyl)piperazin-1-yl]-1-oxo-1,3-dihydro-2H-isoindol-2-yl}piperidine-2,6-dione] | 8.5 nM
C[C@@H]1Cc2c([nH]c3ccccc23)[C@@H](c2cnc(N3CCC(CCCN4CCN(c5ccc6c(c5)CN(C5CCC(=O)NC5=O)C6=O)CC4)CC3)nc2)N1CC(C)(C)F (stereo partly drawn) [Example 8, 3-(5-{4-[3-(1-{5-[(1R,3R)-2-(2-fluoro-2-methylpropyl)-3-methyl-2,3,4,9-tetrahydro-1H-beta-carbolin-1-yl]pyrimidin-2-yl}piperidin-4-yl)propyl]piperazin-1-yl}-1-oxo-1,3-dihydro-2H-isoindol-2-yl)piperidine-2,6-dione] | 4.3 nM
C[C@@H]1Cc2c([nH]c3ccccc23)[C@@H](c2cnc(OCCCCCN3CCN(c4ccc5c(c4)CN(C4CCC(=O)NC4=O)C5=O)CC3)nc2)N1CC(C)(C)F (stereo partly drawn) [Example 40, 3-(5-{4-[5-({5-[(1R,3R)-2-(2-fluoro-2-methylpropyl)-3-methyl-2,3,4,9-tetrahydro-1H-beta-carbolin-1-yl]pyrimidin-2-yl}oxy)pentyl]piperazin-1-yl}-1-oxo-1,3-dihydro-2H-isoindol-2-yl)piperidine-2,6-dione] | 7 nM
C[C@@H]1Cc2c([nH]c3ccccc23)[C@@H](c2cnc(N3CCC4(CCN(CC5CCN(c6ccc7c(c6)CN(C6CCC(=O)NC6=O)C7=O)CC5)CCO4)CC3)nc2)N1CC(C)(C)F (stereo partly drawn) [Example 18, 3-(5-{4-[(3-{5-[(1R,3R)-2-(2-fluoro-2-methylpropyl)-3-methyl-2,3,4,9-tetrahydro-1H-beta-carbolin-1-yl]pyrimidin-2-yl}-7-oxa-3,10-diazaspiro[5.6]dodecan-10-yl)methyl]piperidin-1-yl}-1-oxo-1,3-dihydro-2H-isoindol-2-yl)piperidine-2,6-dione] | 9.5 nM
C[C@@H]1Cc2c([nH]c3ccccc23)[C@@H](c2cnc(N3CCC(CN4CCOC5(CC4)CCN(c4ccc6c(c4)CN(C4CCC(=O)NC4=O)C6=O)CC5)CC3)nc2)N1CC(C)(C)F (stereo partly drawn) [Example 19, 3-(5-{10-[(1-{5-[(1R,3R)-2-(2-fluoro-2-methylpropyl)-3-methyl-2,3,4,9-tetrahydro-1H-beta-carbolin-1-yl]pyrimidin-2-yl}piperidin-4-yl)methyl]-7-oxa-3,10-diazaspiro[5.6]dodecan-3-yl}-1-oxo-1,3-dihydro-2H-isoindol-2-yl)piperidine-2,6-dione] | 5.3 nM
C[C@@H]1Cc2c([nH]c3ccccc23)[C@@H](c2cnc(N3CCC(CN4CCC5(CC4)CCN(c4ccc6c(c4)CN(C4CCC(=O)NC4=O)C6=O)CC5)CC3)nc2)N1CC(C)(C)F (mixture of isomers) [Example 7, 3-(5-{9-[(1-{5-[(1R,3R)-2-(2-fluoro-2-methylpropyl)-3-methyl-2,3,4,9-tetrahydro-1H-beta-carbolin-1-yl]pyrimidin-2-yl}piperidin-4-yl)methyl]-3,9-diazaspiro[5.5]undecan-3-yl}-1-oxo-1,3-dihydro-2H-isoindol-2-yl)piperidine-2,6-dione] | 4.7 nM
C[C@@H]1Cc2c([nH]c3ccccc23)[C@@H](c2ccc(N3CCC(CN4CCC5(CC4)CCN(c4ccc6c(c4)CN(C4CCC(=O)NC4=O)C6=O)CC5)CC3)cn2)N1CC(C)(C)F (stereo partly drawn) [Example 21, 3-(5-{9-[(1-{6-[(1S,3R)-2-(2-fluoro-2-methylpropyl)-3-methyl-2,3,4,9-tetrahydro-1H-beta-carbolin-1-yl]pyridin-3-yl}piperidin-4-yl)methyl]-3,9-diazaspiro[5.5]undecan-3-yl}-1-oxo-1,3-dihydro-2H-isoindol-2-yl)piperidine-2,6-dione] | 7.6 nM
C[C@@H]1Cc2c([nH]c3ccccc23)[C@@H](c2cnc(N3CCC(CCN4CCN(c5ccc6c(c5)CN(C5CCC(=O)NC5=O)C6=O)CC4)CC3)nc2)N1CC(F)(F)F (stereo partly drawn) [Example 15, 3-(5-{4-[2-(1-{5-[(1R,3R)-3-methyl-2-(2,2,2-trifluoroethyl)-2,3,4,9-tetrahydro-1H-beta-carbolin-1-yl]pyrimidin-2-yl}piperidin-4-yl)ethyl]piperazin-1-yl}-1-oxo-1,3-dihydro-2H-isoindol-2-yl)piperidine-2,6-dione] | 3.7 nM
COc1cc(N2CCN(CC3CCN(c4ncc([C@@H]5c6[nH]c7ccccc7c6C[C@@H](C)N5CC(C)(C)F)cn4)CC3)CC2)cc2c1C(=O)N(C1CCC(=O)NC1=O)C2 (stereo partly drawn) [Example 39, 3-(5-{4-[(1-{5-[(1R,3R)-2-(2-fluoro-2-methylpropyl)-3-methyl-2,3,4,9-tetrahydro-1H-beta-carbolin-1-yl]pyrimidin-2-yl}piperidin-4-yl)methyl]piperazin-1-yl}-7-methoxy-1-oxo-1,3-dihydro-2H-isoindol-2-yl)piperidine-2,6-dione] | 3.2 nM

— patent US20220169643A1, “ESTROGEN RECEPTOR DEGRADING PROTACS” (AstraZeneca AB, priority 2019, published 2022)
